According to patent US10266544B2, “Aryl substituted aminomethyl spectinomycin analogs as antibacterial agents” (ST. JUDE CHILDREN'S RESEARCH HOSPITAL, INC., priority 2013, dated 2019):
Where a name gives a salt, the structure may show the parent alone. Read-outs that look alike come from different tables or passages of the source.

How the values were obtained:
Type in all cases: cell-based
[1] = system: Bacillus anthracis, Sterne 34F2; experiment: microbe, parasite or virus in culture; details: STERNE34F2, read-out: MIC B.a.
[2] = system: Bacillus subtilis (ATCC 23857); experiment: MIC determination, microbroth dilution; details: ATCC23857; Bacillus subtilis (ATCC 23857); read-out: MIC B.s.
[3] = system: Enterococcus faecalis (ATCC 33186); experiment: MIC determination, microbroth dilution
[4] = system: Staphylococcus aureus (ATCC 29213); experiment: MIC determination, microbroth dilution; details: ATCC29213; Staphylococcus aureus (ATCC 29213); read-out: MIC S.a.
[5] = system: MRSA, Staphylococcus aureus (NRS70); experiment: MIC determination, microbroth dilution; details: Staphylococcus aureus (NRS70); read-out: MIC MRSA
[6] = system: Streptococcus pneumoniae (R6); experiment: MIC determination, microbroth dilution; details: read-out: MIC S. pn.
[7] = system: Streptococcus pyogenes (ATCC 700294); experiment: MIC determination, microbroth dilution
[8] = system: acinetobacter baumannii (ATCC 19606); experiment: MIC determination, microbroth dilution; details: ATCC19606
[9] = system: Burkholderia cepacia (ATCC 25416); experiment: MIC determination, microbroth dilution; details: Burkholderia cepacia
[10] = system: Escherichia coli (ATCC 700926); experiment: MIC determination, microbroth dilution; details: ATCC700926; Escherichia coli (ATCC 700926); read-out: MIC E.c.
[11] = system: E. coli K12 ΔtolC; experiment: microbe, parasite or virus in culture; details: Escherichia coli, read-out: MIC E.c. Δtolc
[12] = system: Klebsiella pneumoniae (ATCC 33495); experiment: MIC determination, microbroth dilution; details: ATCC33495
[13] = system: Pseudomonas aeruginosa (PA01); experiment: MIC determination, microbroth dilution
[14] = system: Proteus mirabilis (ATCC 25933); experiment: MIC determination, microbroth dilution; details: ATCC25933
[15] = system: Proteus vulgaris (ATCC 33420); experiment: MIC determination, microbroth dilution; details: ATCC33420
[16] = system: Stenotrophomonas maltophilia (ATCC 13637); experiment: MIC determination, microbroth dilution
[17] = system: Haemophilus influenza (ATCC 49247); experiment: microbe, parasite or virus in culture; details: ATCC49247; Haemophilus influenza; 4 μg per disc; range of at least two experiments; read-out: Zone of inhibition H.i.
[18] = system: Legionella pneumophila (ATCC 33153); experiment: microbe, parasite or virus in culture; details: ATCC33153, 72 h, read-out: Zone of inhibition L.p.
[19] = system: Neisseria meningitides (ATCC 13077); experiment: Disc diffusion assay; details: ATCC13077, 4 μg per disc, read-out: Zone of inhibition N.m.
[20] = system: Neisseria gonorrhoeae (ATCC 49226); experiment: Disc diffusion assay; details: ATCC49226, 4 μg per disc, read-out: Zone of inhibition N.g.
[21] = system: Neisseria gonorrhoeae (ATCC 49226); experiment: Agar MIC determination (Alamar Blue); details: ATCC49226, agar MIC, read-out: MIC N.g.
[22] = system: Bacillus anthracis; experiment: microbe, parasite or virus in culture; details: read-out: MIC B.a.
[23] = system: Yersinia pestis; experiment: microbe, parasite or virus in culture; details: read-out: MIC Y.p.
[24] = system: M. tuberculosis clinical isolates; experiment: microbe, parasite or virus in culture; details: Mycobacterium tuberculosis, H37RV, read-out: MIC H37Rv
[25] = system: Listeria monocytogenes; experiment: MIC determination (Table 6)
[26] = system: Moraxella catarrhalis; experiment: MIC determination (Table 6)
[27] = ATCC33186, Enterococcus faecalis (ATCC 33186), read-out: MIC E.f.
[28] = Streptococcus pyogenes, ATCC700294, read-out: MIC S. py.
[29] = ATCC25416, read-out: MIC B.c., Burkholderia cepacia (ATCC 25416)
[30] = ATCC25416, read-out: MIC B.c., Burkholderia cepacia, Table 6
[31] = Stenotrophomonas maltophilia, ATCC13637, read-out: MIC S.m.
[32] = ATCC700294, Streptococcus pyogenes (ATCC 700294), read-out: MIC S. py.
[33] = ATCC13637, Stenotrophomonas maltophilia (ATCC 13637), read-out: MIC S.m.

SMILES	MIC [1]	MIC [2]	MIC [4]	MIC [5]	MIC [8]	MIC [9, 29]	MIC [9, 30]	MIC [10]	MIC [11]	MIC [12]	MIC [13]	MIC [14]	MIC [15]	zone of inhibition at 4 µg/disc [17]	zone of inhibition at 4 µg/disc [18]	zone of inhibition at 4 µg/disc [19]	zone of inhibition at 4 µg/disc [20]	MIC [21]	MIC [22]	MIC [24]	other results
CN[C@@H]1[C@H](O)[C@H](NC)[C@H]2O[C@]3(O)[C@H](O[C@@H]2[C@H]1O)O[C@H](C)C[C@@]3(O)CNCc1ccccn1 [compound 16, 3′-(R)-3′-(2-pyridinylmethylaminomethyl)dihydrospectinomycin Tetrahydrobromide]	50 µg/mL	50 µg/mL	100 to 200 µg/mL	> 200 µg/mL	> 200 µg/mL	> 200 µg/mL	> 200 µg/mL	100 to 200 µg/mL	50 µg/mL	200 µg/mL	> 200 µg/mL	> 200 µg/mL	> 200 µg/mL	7 mm	34 mm	13 mm	6 mm	≥ 200 µg/mL	50 µg/mL	12.5 µg/mL	MIC [3, 27]: 100 µg/mL; MIC ([6]; Streptococcus pneumoniae): 12.5 µg/mL; MIC [7, 28]: 12.5 to 25 µg/mL; MIC [16, 31]: 12.5 to 25 µg/mL; MIC [23]: 100 µg/mL; MIC [25]: 25 µg/mL; MIC [26]: 12.5 µg/mL
CN[C@@H]1[C@H](O)[C@H](NC)[C@H]2O[C@]3(O)[C@H](O[C@@H]2[C@H]1O)O[C@H](C)C[C@@]3(O)CNCc1cccc(F)c1 [compound 15, 3′-(R)-3′-[(3-fluoro)benzylaminomethyl)]dihydrospectinomycin Trihydrochloride]	12.5 to 25 µg/mL	3.1 to 6.3 µg/mL	100 µg/mL	50 µg/mL	> 200 µg/mL	≥ 200 µg/mL	≥ 200 µg/mL	25 to 50 µg/mL	6.3 to 12.5 µg/mL	> 200 µg/mL	≥ 200 µg/mL	> 200 µg/mL	200 µg/mL	14 mm	41 mm	20 mm	18 mm	25 to 50 µg/mL	12.5 to 25 µg/mL	25 µg/mL	MIC ([3]; Enterococcus faecalis, ATCC33186, read-out: MIC E.f.): 12.5 to 25 µg/mL; MIC ([6]; Streptococcus pneumoniae (R6)): 3.1 µg/mL; MIC [7, 32]: 3.1 µg/mL; MIC [16, 33]: 12.5 µg/mL; MIC [23]: 100 µg/mL; MIC [25]: 6.3 µg/mL; MIC [26]: 1.6 µg/mL
CN[C@@H]1[C@H](O)[C@H](NC)[C@H]2O[C@]3(O)[C@H](O[C@@H]2[C@H]1O)O[C@H](C)C[C@@]3(O)CNCc1nccs1 [compound 19, 3′-(R)-3′-(2-thiazolylmethyl)aminomethyldihydrospectinomycin Tetrahydrobromide]	100 µg/mL	100 µg/mL	100 µg/mL	> 200 µg/mL	> 200 µg/mL	> 200 µg/mL	> 200 µg/mL	200 µg/mL	12.5 to 25 µg/mL	> 200 µg/mL	> 200 µg/mL	> 200 µg/mL	> 200 µg/mL	10 mm	39 mm	13 mm	9 mm	100 µg/mL	100 µg/mL	100 µg/mL	MIC [3, 27]: 50 µg/mL; MIC ([6]; Streptococcus pneumoniae (R6)): 12.5 µg/mL; MIC [7, 32]: 12.5 µg/mL; MIC [16, 33]: 25 to 50 µg/mL; MIC [25]: 25 µg/mL; MIC [26]: 12.5 µg/mL
CN[C@@H]1[C@H](O)[C@H](NC)[C@H]2O[C@]3(O)[C@H](O[C@@H]2[C@H]1O)O[C@H](C)C[C@@]3(O)CNCc1ccccc1F [compound 14, 3′-(R)-3′-[(2-fluoro)benzylaminomethyl)]dihydrospectinomycin Trihydrochloride]	50 to 100 µg/mL	6.3 µg/mL	200 µg/mL	≥ 200 µg/mL	> 200 µg/mL	100 to 200 µg/mL	100 to 200 µg/mL	50 µg/mL	25 µg/mL	≥ 200 µg/mL	≥ 200 µg/mL	> 200 µg/mL	100 µg/mL	11 to 12 mm	36 mm	19 mm	18 mm	12.5 to 25 µg/mL	50 to 100 µg/mL	50 µg/mL	MIC [3, 27]: 50 µg/mL; MIC ([6]; Streptococcus pneumoniae (R6)): 3.1 to 6.3 µg/mL; MIC [7, 32]: 3.1 µg/mL; MIC [16, 33]: 12.5 to 25 µg/mL; MIC [23]: > 200 µg/mL; MIC [25]: 25 µg/mL; MIC [26]: 1.6 µg/mL
CN[C@@H]1[C@H](O)[C@H](NC)[C@H]2O[C@]3(O)[C@H](O[C@@H]2[C@H]1O)O[C@H](C)C[C@@]3(O)CNCc1cccs1 [compound 17, 3′-(R)-3′-(2-thiophenylmethylaminomethyl)dihydrospectinomycin Trihydrochloride]	50 µg/mL	25 µg/mL	50 µg/mL	100 to 200 µg/mL	> 200 µg/mL	> 200 µg/mL	> 200 µg/mL	50 µg/mL	6.3 to 12.5 µg/mL	200 µg/mL	≥ 200 µg/mL	> 200 µg/mL	200 µg/mL	13 mm	41 mm	15 mm	11 mm	50 µg/mL	50 µg/mL	25 µg/mL	MIC [3, 27]: 50 µg/mL; MIC ([6]; Streptococcus pneumoniae (R6)): 12.5 µg/mL; MIC [7, 28]: 6.3 to 12.5 µg/mL; MIC [16, 33]: 6.3 µg/mL; MIC [25]: 12.5 µg/mL; MIC [26]: 3.1 µg/mL
CN[C@@H]1[C@H](O)[C@H](NC)[C@H]2O[C@]3(O)[C@H](O[C@@H]2[C@H]1O)O[C@H](C)C[C@@]3(O)CNCc1ccncc1 [compound 9, 3′-(R)-3′-(4-pyridinylmethylaminomethyl)dihydrospectinomycin Tetrahydrobromide]	100 to 200 µg/mL	200 µg/mL	≥ 200 µg/mL	≥ 200 µg/mL	≥ 200 µg/mL	> 200 µg/mL	> 200 µg/mL	50 µg/mL	12.5 µg/mL	> 200 µg/mL	≥ 200 µg/mL	> 200 µg/mL	> 200 µg/mL	8 mm	28 mm	6 mm	6 mm	≥ 200 µg/mL	100 to 200 µg/mL	200 µg/mL	MIC [3, 27]: > 200 µg/mL; MIC ([6]; Streptococcus pneumoniae (R6)): 25 to 50 µg/mL; MIC [7, 32]: 25 to 50 µg/mL; MIC [16, 33]: 200 µg/mL; MIC [25]: 100 µg/mL; MIC [26]: 12.5 µg/mL
CN[C@@H]1[C@H](O)[C@H](NC)[C@H]2O[C@]3(O)[C@H](O[C@@H]2[C@H]1O)O[C@H](C)C[C@@]3(O)CNCc1ccco1 [compound 8, 3′-(R)-3′-(2-furanylmethylaminomethyl)dihydrospectinomycin Trihydrochloride]	50 µg/mL	12.5 µg/mL	50 µg/mL	200 µg/mL	≥ 200 µg/mL	≥ 200 µg/mL	≥ 200 µg/mL	50 µg/mL	6.3 to 12.5 µg/mL	200 µg/mL	200 µg/mL	> 200 µg/mL	> 200 µg/mL	9 mm	41 mm	10 mm	8 mm	50 µg/mL	100 µg/mL	25 µg/mL	MIC [3, 27]: 50 µg/mL; MIC ([6]; Streptococcus pneumoniae (R6)): 12.5 µg/mL; MIC [7, 32]: 12.5 to 25 µg/mL; MIC [16, 31]: 6.3 to 12.5 µg/mL; MIC [25]: 25 µg/mL; MIC [26]: 6.3 µg/mL
